What was measured:
Type in all cases: functional
U-251 [1] = assay: Cytotoxicity against human U251 cells assessed as cell growth at 100 uM after 48 hrs by SRB assay relative to control; conditions: U-251, 48 h, read-out: Activity
NCI-H322M [2] = assay: Cytotoxicity against human NCI-H322M cells assessed as cell growth at 0.1 uM after 48 hrs by SRB assay relative to control; conditions: read-out: Activity
NCI-H322M [3] = assay: Cytotoxicity against human NCI-H322M cells assessed as cell growth at 0.01 uM after 48 hrs by SRB assay relative to control; conditions: read-out: Activity
U-251 [4] = assay: Cytotoxicity against human U251 cells assessed as cell growth at 0.01 uM after 48 hrs by SRB assay relative to control; conditions: U-251, 48 h, read-out: Activity
U-251 [5] = assay: Cytotoxicity against human U251 cells assessed as cell growth at 0.1 uM after 48 hrs by SRB assay relative to control; conditions: U-251, 48 h, read-out: Activity
HOP-92 = assay: Cytotoxicity against human HOP92 cells assessed as cell growth at 0.1 uM after 48 hrs by SRB assay relative to control; conditions: HOP-92, 48 h, read-out: Activity
A549 = assay: Cytotoxicity against human A549 cells assessed as cell growth at 1 uM after 48 hrs by SRB assay relative to control; conditions: A549, 48 h, read-out: Activity
ACHN [6] = assay: Cytotoxicity against human ACHN cells assessed as cell growth at 100 uM after 48 hrs by SRB assay relative to control; conditions: read-out: Activity
NCI-H322M [7] = assay: Cytotoxicity against human NCI-H322M cells assessed as cell growth at 1 uM after 48 hrs by SRB assay relative to control; conditions: read-out: Activity
SNB-75 = assay: Cytotoxicity against human SNB75 cells assessed as cell growth at 100 uM after 48 hrs by SRB assay relative to control; conditions: SNB-75, 48 h, read-out: Activity
NCI/ADR-RES = assay: Cytotoxicity against human NCI-ADR-RES cells assessed as cell growth at 0.01 uM after 48 hrs by SRB assay relative to control; conditions: read-out: Activity
TK-10 = assay: Cytotoxicity against human TK10 cells assessed as cell growth at 0.1 uM after 48 hrs by SRB assay relative to control; conditions: TK-10, 48 h, read-out: Activity
MCF7 = assay: Cytotoxicity against human MCF7 cells assessed as cell growth at 0.01 uM after 48 hrs by SRB assay relative to control; conditions: MCF7, 48 h, read-out: Activity
T47D = assay: Cytotoxicity against human T47D cells after 48 hrs by SRB assay
SF-268 = assay: Cytotoxicity against human SF268 cells assessed as cell growth at 100 uM after 48 hrs by SRB assay relative to control; conditions: SF-268, 48 h, read-out: Activity
NCI-H460 [8] = assay: Cytotoxicity against human NCI-H460 cells assessed as cell growth at 0.1 uM after 48 hrs by SRB assay relative to control; conditions: NCI-H460, 48 h, read-out: Activity
ACHN [9] = assay: Cytotoxicity against human ACHN cells after 48 hrs by SRB assay; conditions: for CC50: read-out: LC50 (the source's name)
NCI-H322M [10] = assay: Cytotoxicity against human NCI-H322M cells assessed as cell growth at 100 uM after 48 hrs by SRB assay relative to control; conditions: read-out: Activity
U-251 [11] = assay: Cytotoxicity against human U251 cells after 48 hrs by SRB assay; conditions: U-251, 48 h
NCI-H322M [12] = assay: Cytotoxicity against human NCI-H322M cells after 48 hrs by SRB assay
MDA-MB-231 = assay: Cytotoxicity against human MDA-MB-231 cells assessed as cell growth at 0.01 uM after 48 hrs by SRB assay relative to control; conditions: MDA-MB-231, 48 h, read-out: Activity
NCI-H460 [13] = assay: Cytotoxicity against human NCI-H460 cells assessed as cell growth at 0.01 uM after 48 hrs by SRB assay relative to control; conditions: NCI-H460, 48 h, read-out: Activity
U-251 [14] = assay: Cytotoxicity against human U251 cells assessed as cell growth at 1 uM after 48 hrs by SRB assay relative to control; conditions: U-251, 48 h, read-out: Activity
EKVX [15] = assay: Cytotoxicity against human EKVX cells assessed as cell growth at 0.1 uM after 48 hrs by SRB assay relative to control; conditions: read-out: Activity
EKVX [16] = assay: Cytotoxicity against human EKVX cells assessed as cell growth at 0.01 uM after 48 hrs by SRB assay relative to control; conditions: read-out: Activity
EKVX [17] = assay: Cytotoxicity against human EKVX cells assessed as cell growth at 1 uM after 48 hrs by SRB assay relative to control; conditions: read-out: Activity
EKVX [18] = assay: Cytotoxicity against human EKVX cells after 48 hrs by SRB assay
EKVX [19] = assay: Cytotoxicity against human EKVX cells assessed as cell growth at 100 uM after 48 hrs by SRB assay relative to control; conditions: read-out: Activity
OVCAR-4 [20] = assay: Cytotoxicity against human OVCAR4 cells assessed as cell growth at 0.01 uM after 48 hrs by SRB assay relative to control; conditions: OVCAR-4, 48 h, read-out: Activity
OVCAR-4 [21] = assay: Cytotoxicity against human OVCAR4 cells assessed as cell growth at 1 uM after 48 hrs by SRB assay relative to control; conditions: OVCAR-4, 48 h, read-out: Activity
SK-OV-3 = assay: Cytotoxicity against human SKOV3 cells assessed as cell growth at 100 uM after 48 hrs by SRB assay relative to control; conditions: SK-OV-3, 48 h, read-out: Activity
OVCAR-4 [22] = assay: Cytotoxicity against human OVCAR4 cells assessed as cell growth at 0.1 uM after 48 hrs by SRB assay relative to control; conditions: OVCAR-4, 48 h, read-out: Activity
OVCAR-4 [23] = assay: Cytotoxicity against human OVCAR4 cells after 48 hrs by SRB assay; conditions: OVCAR-4, 48 h
OVCAR-4 [24] = assay: Cytotoxicity against human OVCAR4 cells assessed as cell growth at 100 uM after 48 hrs by SRB assay relative to control; conditions: OVCAR-4, 48 h, read-out: Activity
[25] = read-out: LC50 (the source's name)

## N#CCCCCCn1cc(C2=C(c3cn(CCCCCC#N)c4ccccc34)C(=O)N(O)C2=O)c2ccccc21
U-251 [1]
  growth at 100 µM: 5%
NCI-H322M [2]
  growth at 0.1 µM: 99%
NCI-H322M [3]
  growth at 0.01 µM: 98%
U-251 [4]
  growth at 0.01 µM: 102%
U-251 [5]
  growth at 0.1 µM: 100%
HOP-92
  growth at 0.1 µM: 97%
A549
  growth at 1 µM: 100%
ACHN [6]
  growth at 100 µM: 4%
NCI-H322M [7]
  growth at 1 µM: 100%
SNB-75
  growth at 100 µM: -32%
NCI/ADR-RES
  growth at 0.01 µM: 100%
TK-10
  growth at 0.1 µM: 95%
MCF7
  growth at 0.01 µM: 91%
T47D
  GI50: 4.15 µM
  LC50: > 100 µM
  TGI: 60.5 µM
SF-268
  growth at 100 µM: 8%
NCI-H460 [8]
  growth at 0.1 µM: 104%
ACHN [9]
  GI50: 8.04 µM
  TGI: > 100 µM
  CC50: > 100 µM
NCI-H322M [10]
  growth at 100 µM: -4%
U-251 [11]
  GI50: 4.65 µM
  TGI: > 100 µM
U-251 [11]; [25]
  CC50: > 100 µM
NCI-H322M [12]
  GI50: 8.53 µM
  TGI: 84.6 µM
NCI-H322M [12]; [25]
  CC50: > 100 µM
MDA-MB-231
  growth at 0.01 µM: 96%
NCI-H460 [13]
  growth at 0.01 µM: 104%
U-251 [14]
  growth at 1 µM: 100%

## Cn1cc(C2=C(c3cn(C)c4ncccc34)C(=O)NC2=O)c2ccccc21
EKVX [15]
  growth at 0.1 µM: 84%
EKVX [16]
  growth at 0.01 µM: 91%
HOP-92
  growth at 0.1 µM: 83%
A549
  growth at 1 µM: 84%
ACHN [6]
  growth at 100 µM: -11%
SNB-75
  growth at 100 µM: -51%
NCI/ADR-RES
  growth at 0.01 µM: 101%
TK-10
  growth at 0.1 µM: 105%
MCF7
  growth at 0.01 µM: 93%
EKVX [17]
  growth at 1 µM: 65%
EKVX [18]
  GI50: 1.83 µM
  TGI: 15.1 µM
EKVX [18]; [25]
  CC50: > 100 µM
T47D
  GI50: 2.37 µM
  TGI: 30.3 µM
SF-268
  growth at 100 µM: -12%
NCI-H460 [8]
  growth at 0.1 µM: 97%
ACHN [9]
  GI50: 2.93 µM
  TGI: 26.2 µM
  CC50: > 100 µM
EKVX [19]
  growth at 100 µM: -42%
OVCAR-4 [20]
  growth at 0.01 µM: 102%
OVCAR-4 [21]
  growth at 1 µM: 85%
SK-OV-3
  growth at 100 µM: -7%
MDA-MB-231
  growth at 0.01 µM: 99%
OVCAR-4 [22]
  growth at 0.1 µM: 87%
OVCAR-4 [23]
  GI50: 4.86 µM
  TGI: 83.1 µM
OVCAR-4 [23]; [25]
  CC50: > 100 µM
OVCAR-4 [24]
  growth at 100 µM: -3%
NCI-H460 [13]
  growth at 0.01 µM: 97%

— ChEMBL document CHEMBL4229455, “Synthesis and anticancer activity of novel bisindolylhydroxymaleimide derivatives with potent GSK-3 kinase inhibition” (Bioorg Med Chem, 2018)
